# Data published in ChEMBL document CHEMBL1121541, “Novel analogues of enkephalin: indentification of functional groups required for biological activity” (J Med Chem, 1980).
# Test system: not listed separately; call rule not given here
# Test: Ratio of IC50 of [D-Ala2, D-Leu5]-enkephalin to that of the compound, in the guinea pig ileum assay
# Assay type: functional
row,Structure (SMILES),Ratio
1,C[C@@H](NC(=O)[C@@H](N)Cc1ccc(O)cc1)C(=O)NCC(=O)NC1CCc2ccccc21 (some centres undefined),0.47

# Species on record: Cavia porcellus
# Test: Inhibition of contraction of electrically stimulated guinea pig ileum
# Assay type: functional, organism-based
row,Structure (SMILES),IC50 [nM]
1,C[C@@H](NC(=O)[C@@H](N)Cc1ccc(O)cc1)C(=O)NCC(=O)OCc1ccccc1,220
2,CN1CC[C@]23c4c5ccc(O)c4O[C@H]2[C@@H](O)C=C[C@H]3[C@H]1C5,1.6
3,CSCC[C@H](NC(=O)[C@H](Cc1ccccc1)NC(=O)CNC(=O)[C@H](NC(=O)[C@@H](N)Cc1ccc(O)cc1)C(C)C)C(N)=O,16
4,CC(C)[C@H](NC(=O)[C@@H](N)Cc1ccc(O)cc1)C(=O)NCC(=O)NC1CCc2ccccc21 (some centres undefined),1400
5,CC(C)[C@H](NC(=O)CNC(=O)[C@@H](N)Cc1ccc(O)cc1)C(=O)NC1CCc2ccccc21 (some centres undefined),9030
6,CCOC(=O)CC[C@H](N)C(=O)N[C@H](C)C(=O)NCC(=O)N[C@@H](Cc1ccccc1)C(=O)N[C@H](CC(C)C)C(=O)O,7330
7,C[C@@H](NC(=O)[C@@H](N)Cc1ccc(O)cc1)C(=O)NCC(=O)NC1CCc2ccccc21 (some centres undefined),40
8,CC(C)[C@H](NC(=O)[C@](C)(Cc1ccccc1)NC(=O)CNC(=O)[C@@H](C)NC(=O)[C@@H](N)Cc1ccc(O)cc1)C(=O)O,125
9,CC(NC(=O)[C@@H](N)Cc1ccc(O)cc1)C(=O)NCC(=O)NCC1CC1 (stereo in doubt),480
10,CC(NC(=O)[C@@H](N)Cc1ccc(O)cc1)C(=O)NCC(=O)N[C@@](C)(Cc1ccccc1)C(=O)O (stereo in doubt),75
11,CC(NC(=O)[C@@H](N)Cc1ccc(O)cc1)C(=O)NCC(=O)NC1Cc2ccccc2C1 (stereo in doubt),9010
12,CC(C)CC(NC(=O)[C@H](CC1CCCCC1)NC(=O)CNC(=O)C(C)NC(=O)[C@@H](N)Cc1ccc(O)cc1)C(=O)O (stereo in doubt),9
13,CC(NC(=O)[C@@H](N)Cc1ccc(O)cc1)C(=O)NCC(=O)NCc1ccccc1 (stereo in doubt),140
14,CC(C)C[C@@H](NC(=O)[C@](C)(Cc1ccccc1)NC(=O)CNC(=O)C(C)NC(=O)[C@@H](N)Cc1ccc(O)cc1)C(=O)O (stereo in doubt),42
15,CC(NC(=O)[C@@H](N)Cc1ccc(O)cc1)C(=O)NCC(=O)O (stereo in doubt),24400
16,CC(NC(=O)[C@@H](N)Cc1ccc(O)cc1)C(=O)NCC(=O)NCC1CCC1 (stereo in doubt),320
17,CC(NC(=O)[C@@H](N)Cc1ccc(O)cc1)C(=O)NCC(=O)NCCc1ccccc1 (stereo in doubt),98
18,CC(C)C[C@@H](NC(=O)[C@H](Cc1ccccc1)NC(=O)CNC(=O)[C@@H](C)NC(=O)[C@@H](N)Cc1ccc(O)cc1)C(=O)O [DADLE],17

# Species on record: Cavia porcellus
# Test: Ability to Inhibit amplitude of the electrically stimulated guinea pig ileum by 50%; Inactive at 1.7E-6 concentration
# Assay type: functional, organism-based
row,Structure (SMILES),IC50
1,CC(C)C[C@@H](NC(=O)[C@@H](Cc1ccccc1)NC(=O)CNC(=O)C(C)NC(=O)[C@](C)(N)Cc1ccc(O)cc1)C(=O)O (stereo in doubt),Not Active

# Species on record: Cavia porcellus
# Test: Ability to Inhibit amplitude of the electrically stimulated guinea pig ileum by 50%
# Assay type: functional, organism-based
row,Structure (SMILES),IC50 [nM]
1,N[C@@H](Cc1ccc(O)cc1)C(=O)NCC(=O)NCC(=O)NC1CCc2ccccc21 (some centres undefined),2600

# Species on record: Cavia porcellus
# Test: Ability to Inhibit amplitude of the electrically stimulated guinea pig ileum by 50%; Inactive at 2.19E-4 concentration
# Assay type: functional, organism-based
row,Structure (SMILES),IC50
1,NCCc1ccc(O)cc1 [TYRAMINE],Not Active

# Species on record: Cavia porcellus
# Test: Ability to Inhibit amplitude of the electrically stimulated guinea pig ileum by 50%; Inactive at 2.71E-6
# Assay type: functional, organism-based
row,Structure (SMILES),IC50
1,CC(NC(=O)[C@@H](N)Cc1ccc(O)cc1)C(=O)NCC(=O)NC1Cc2ccccc2C1 (stereo in doubt),Not Active

# Species on record: Cavia porcellus
# Test: Ability to Inhibit amplitude of the electrically stimulated guinea pig ileum by 50%; Inactive at 3.2E-6 concentration
# Assay type: functional, organism-based
row,Structure (SMILES),IC50
1,CC(C)[C@H](NC(=O)CNC(=O)[C@@H](N)Cc1ccc(O)cc1)C(=O)NC1CCc2ccccc21 (some centres undefined),Not Active
